The target in one assay is T1, BTK (Homo sapiens, UniProt Q06187).
T1 construct: High control=Cell group with added DMSO and without compound, indicating microplate readings without BTK degradation; endogenous in cells; host or cells: TMD-8
As to the kind of experiment: BTK degradation in TMD-8 cells (HTRF assay). Conditions: 6 h treatment, IC50 (DC50) of BTK degradation. The assay is classed as cell-based. Summed up:
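BTK remaining after compound treatment was measured by HTRF (337 nm excitation, 665/620 nm emission) in lysates of TMD-8 cells. Cells were exposed for 6 h to eight 6-fold-spaced concentrations in 0.2% DMSO. DC50 values were obtained from a Hill-equation fit (top, bottom, slope) of % inhibition.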
For orientation: TR-FRET usually uses a lanthanide donor and a delayed reading to cut background.

For the next assay, the system named is HEK-293 cells. As to the kind of experiment: HEK-293 cytotoxicity detection (CellTiter-Glo). It is filed as cell-based. Conditions: HEK-293 cells, 72 h incubation, CellTiter-Glo luminescence, IC50 of cell proliferation inhibition, read-out: HEK293. The essentials:
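Four-parameter logistic fitting of percent inhibition versus concentration gives IC50. Luminescent ATP read-out (CellTiter-Glo) after 72 h compound treatment of HEK-293 cells, 8 doses in 4-fold steps from a 5 mM 500× DMSO stock, final DMSO 0.2%.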
(Cellular ATP, detected with luciferase, serves as a proxy for viable cell number.)

These results are taken from patent US20240366770A1, “DEGRADATION OF BRUTON'S TYROSINE KINASE (BTK) BY CONJUGATION OF BTK INHIBITORS WITH E3 LIGASE LIGAND AND METHODS OF USE” (BeiGene Switzerland GmbH, priority 2021, published 2024).

Like-named read-outs stand apart in the source and are kept apart here.

T1 sequence (Q06187 whole entry): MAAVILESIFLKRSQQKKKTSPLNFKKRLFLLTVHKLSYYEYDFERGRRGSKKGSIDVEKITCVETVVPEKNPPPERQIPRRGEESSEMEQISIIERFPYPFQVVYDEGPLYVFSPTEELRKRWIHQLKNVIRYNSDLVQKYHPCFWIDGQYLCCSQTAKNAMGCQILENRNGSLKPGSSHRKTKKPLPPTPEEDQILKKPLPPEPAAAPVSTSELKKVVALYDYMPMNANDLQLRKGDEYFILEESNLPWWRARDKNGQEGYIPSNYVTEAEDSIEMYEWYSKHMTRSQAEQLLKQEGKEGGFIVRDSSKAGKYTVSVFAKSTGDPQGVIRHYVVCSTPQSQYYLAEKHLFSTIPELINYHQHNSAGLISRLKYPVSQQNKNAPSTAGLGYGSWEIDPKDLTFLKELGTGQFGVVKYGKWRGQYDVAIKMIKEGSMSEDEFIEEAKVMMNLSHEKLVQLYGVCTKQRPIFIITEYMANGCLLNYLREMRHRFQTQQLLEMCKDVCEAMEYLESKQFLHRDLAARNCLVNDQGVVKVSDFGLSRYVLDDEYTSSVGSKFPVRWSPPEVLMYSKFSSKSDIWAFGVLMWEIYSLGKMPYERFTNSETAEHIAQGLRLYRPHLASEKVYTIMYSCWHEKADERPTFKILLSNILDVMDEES

For the compound `Cc1cc(-c2ncnc3[nH]c4cc([C@@H]5CCN(CC6CCN(c7ccc(N8CCC(=O)NC8=O)cc7)CC6)C5)ccc4c23)ccc1[C@@H](C)NC(=O)c1nc(C(C)(C)C)no1` [Example 13, 3-(tert-butyl)-N—((R)-1-(4-(7-((S)-1-((1-(4-(2,4-dioxotetrahydropyrimidin-1(2H)-yl)phenyl)piperidin-4-yl)methyl)pyrrolidin-3-yl)-9H-pyrimido[4,5-b]indol-4-yl)-2-methylphenyl)ethyl)-1,2,4-oxadiazole-5-carboxamide], at BTK, the 50% degradation concentration (DC50) – broadly, the concentration giving 50% degradation – stood at 1.05 nM. For the same compound, the IC50 in the assay with HEK-293 cells (Homo sapiens) amounted to 3260 nM.

The compound `Cc1cc(-c2ncnc3[nH]c4cc(N5CCC6(CC5)CCN(C5CC(c7ccc(N[C@H]8CCC(=O)NC8=O)cc7)C5)CC6)ccc4c23)ccc1[C@@H](C)NC(=O)c1nc(C(C)(C)C)no1` (stereo partly drawn) [Example 108, 3-(tert-butyl)-N-((1R)-1-(4-(7-(9-((1s,3s)-3-(4-((2,6-dioxopiperidin-3-yl)amino)phenyl)cyclobutyl)-3,9-diazaspiro[5.5]undecan-3-yl)-9H-pyrimido[4,5-b]indol-4-yl)-2-methylphenyl)ethyl)-1,2,4-oxadiazole-5-carboxamide] displayed a DC50 on BTK of 2.64 nM. Besides, the IC50 with HEK-293 cells turned out to be 949 nM.

On BTK, `CC(C)(C)c1noc(C(=O)NC(C)(C)C2CCN(c3ncnc4[nH]c5cc(N6CCN(CC7CCN(c8ccc(N9CCC(=O)NC9=O)cc8)CC7)CC6)ccc5c34)CC2)n1` [Example 131, 3-(tert-butyl)-N-(2-(1-(7-(4-((1-(4-(2,4-dioxotetrahydropyrimidin-1(2H)-yl)phenyl)piperidin-4-yl)methyl)piperazin-1-yl)-9H-pyrimido[4,5-b]indol-4-yl)piperidin-4-yl)propan-2-yl)-1,2,4-oxadiazole-5-carboxamide] returned a DC50 of 27.5 nM. In addition, the IC50 in the assay with HEK-293 cells (Homo sapiens) is more than 10000 nM.

`C[C@H]1CC[C@@H](NC(=O)c2nc(C(C)(C)C)no2)CN1c1ncnc2[nH]c3cc(N4CCN(CC5CCN(c6ccc(N7CCC(=O)NC7=O)cc6)CC5)CC4)ccc3c12` [Example 129, 3-(tert-butyl)-N-((3R,6S)-1-(7-(4-((1-(4-(2,4-dioxotetrahydropyrimidin-1(2H)-yl)phenyl)piperidin-4-yl)methyl)piperazin-1-yl)-9H-pyrimido[4,5-b]indol-4-yl)-6-methylpiperidin-3-yl)-1,2,4-oxadiazole-5-carboxamide]: the DC50 at BTK was more than 2000 nM. Further, the IC50 with HEK-293 cells (Homo sapiens) came out at 2040 nM.

For `COc1cc2c(cc1N1CCN(CC3CCN(c4ccc(N5CCC(=O)NC5=O)cc4)CC3)CC1)[nH]c1ncnc(-c3cc(C)c([C@@H](C)NC(=O)c4nc(C5(C)CC5)no4)cc3F)c12` [Example 93, (R)—N-(1-(4-(7-(4-((1-(4-(2,4-dioxotetrahydropyrimidin-1(2H)-yl)phenyl)piperidin-4-yl)methyl)piperazin-1-yl)-6-methoxy-9H-pyrimido[4,5-b]indol-4-yl)-5-fluoro-2-methylphenyl)ethyl)-3-(1-methylcyclopropyl)-1,2,4-oxadiazole-5-carboxamide], half-maximal degradation on BTK (DC50) was put at 2.51 nM. Besides, the IC50 in the assay on HEK-293 cells (Homo sapiens) is more than 10000 nM.

As to `Cc1cc(-c2ncnc3[nH]c4cc(N5CCN(CCc6cccc7c6C6(CC6)C(=O)N7C6CCC(=O)NC6=O)CC5)ccc4c23)ccc1[C@@H](C)NC(=O)c1nc(C2(C)CC2)no1` (stereo partly drawn) [Example 124, N-((1R)-1-(4-(7-(4-(2-(1′-(2,6-dioxopiperidin-3-yl)-2′-oxospiro[cyclopropane-1,3′-indolin]-4′-yl)ethyl)piperazin-1-yl)-9H-pyrimido[4,5-b]indol-4-yl)-2-methylphenyl)ethyl)-3-(1-methylcyclopropyl)-1,2,4-oxadiazole-5-carboxamide], the DC50 at BTK stood at 0.838 nM. Moreover, in the assay on HEK-293 cells (Homo sapiens), the IC50 is more than 10000 nM.

On BTK, `CN1CCN(CC2CCN(c3ncnc4[nH]c5cc(N6CCN(CC7CCN(c8ccc(N9CCC(=O)NC9=O)cc8)CC7)CC6)ccc5c34)CC2)C1=O` [Example 81, 1-(4-(4-((4-(4-(4-((3-methyl-2-oxoimidazolidin-1-yl)methyl)piperidin-1-yl)-9H-pyrimido[4,5-b]indol-7-yl)piperazin-1-yl)methyl)piperidin-1-yl)phenyl)dihydropyrimidine-2,4(1H,3H)-dione] showed a DC50 of more than 2000 nM. Also, the IC50 in the assay on HEK-293 cells (Homo sapiens) was more than 10000 nM.

For the compound `Cc1cc(-c2ncnc3[nH]c4cc(N5CCN(CC6CCN(c7ccc(N8CCC(=O)NC8=O)cc7)CC6)CC5)ccc4c23)ccc1[C@@H](C)NC(=O)c1nc(C(C)(C)C)no1` [Example 6, (R)-3-(tert-butyl)-N-(1-(4-(7-(4-((1-(4-(2,4-dioxotetrahydropyrimidin-1(2H)-yl)phenyl)piperidin-4-yl)methyl)piperazin-1-yl)-9H-pyrimido[4,5-b]indol-4-yl)-2-methylphenyl)ethyl)-1,2,4-oxadiazole-5-carboxamide], the DC50 at BTK turned out to be 0.394 nM. In addition, the IC50 in the assay with HEK-293 cells (Homo sapiens) was more than 10000 nM.

Take `COc1cc2c(cc1N1CCN(CC3CCN(c4ccc(N5CCC(=O)NC5=O)cc4)CC3)CC1)[nH]c1ncnc(-c3ccc([C@@H](C)NC(=O)c4nc(C(C)(C)C)no4)c(C)c3F)c12` [Example 54, (R)-3-(tert-butyl)-N-(1-(4-(7-(4-((1-(4-(2,4-dioxotetrahydropyrimidin-1(2H)-yl)phenyl)piperidin-4-yl)methyl)piperazin-1-yl)-6-methoxy-9H-pyrimido[4,5-b]indol-4-yl)-3-fluoro-2-methylphenyl)ethyl)-1,2,4-oxadiazole-5-carboxamide]: half-maximal degradation at BTK (DC50) was put at 3.05 nM. For the same compound, in the assay on HEK-293 cells (Homo sapiens), the IC50 was more than 10000 nM.

The compound `COc1cc2c(cc1N1CCN(CC3CC(c4ccc(C5CCC(=O)NC5=O)cc4)C3)CC1)[nH]c1ncnc(-c3ccc([C@@H](C)NC(=O)c4nc(C(C)(C)C)no4)c(C)c3)c12` (stereo partly drawn) [Example 47, 3-(tert-butyl)-N-((1R)-1-(4-(7-(4-((3-(4-(2,6-dioxopiperidin-3-yl)phenyl)cyclobutyl)methyl)piperazin-1-yl)-6-methoxy-9H-pyrimido[4,5-b]indol-4-yl)-2-methylphenyl)ethyl)-1,2,4-oxadiazole-5-carboxamide] returned a DC50 on BTK of 1.7 nM. In addition, the IC50 in the assay with HEK-293 cells (Homo sapiens) was more than 10000 nM.

`Cc1c([C@@H](C)NC(=O)c2noc(C(C)(C)C)n2)ccc(-c2ncnc3[nH]c4cc(N5CCN(C6CCN(c7cccc(C8CCC(=O)NC8=O)c7)CC6)CC5)ccc4c23)c1F` (stereo partly drawn) [Example 34, 5-(tert-butyl)-N-((1R)-1-(4-(7-(4-(1-(3-(2,6-dioxopiperidin-3-yl)phenyl)piperidin-4-yl)piperazin-1-yl)-9H-pyrimido[4,5-b]indol-4-yl)-3-fluoro-2-methylphenyl)ethyl)-1,2,4-oxadiazole-3-carboxamide] yielded a DC50 on BTK of 1.23 nM. The IC50 in the assay with HEK-293 cells (Homo sapiens) was 1440 nM.

At BTK, `Cc1cc(-c2ncnc3[nH]c4cc(N5CCN(C6CN(C7CN(c8ccc(N9CCC(=O)NC9=O)cc8)C7)C6)CC5)ccc4c23)ccc1[C@@H](C)NC(=O)c1nc(C2(C)CC2)no1` [Example 122, (R)—N-(1-(4-(7-(4-(1′-(4-(2,4-dioxotetrahydropyrimidin-1(2H)-yl)phenyl)-[1,3′-biazetidin]-3-yl)piperazin-1-yl)-9H-pyrimido[4,5-b]indol-4-yl)-2-methylphenyl)ethyl)-3-(1-methylcyclopropyl)-1,2,4-oxadiazole-5-carboxamide] returned a DC50 of 0.395 nM. Besides, in the assay with HEK-293 cells (Homo sapiens), the IC50 was more than 10000 nM.

On to `COc1cc2c(cc1N1CCN(C3CC(c4ccc([C@@H]5CCC(=O)NC5=O)cc4)C3)CC1)[nH]c1ncnc(-c3ccc([C@@H](C)NC(=O)c4noc(C(C)(C)C)n4)c(C)c3F)c12` (stereo partly drawn) [Example 59, 5-(tert-butyl)-N—((R)-1-(4-(7-(4-(3-(4-((S)-2,6-dioxopiperidin-3-yl)phenyl)cyclobutyl)piperazin-1-yl)-6-methoxy-9H-pyrimido[4,5-b]indol-4-yl)-3-fluoro-2-methylphenyl)ethyl)-1,2,4-oxadiazole-3-carboxamide], for which the DC50 on BTK is 4.55 nM. Besides, the IC50 in the assay on HEK-293 cells (Homo sapiens) is more than 10000 nM.

In turn, `Cc1cc(-c2ncnc3[nH]c4cc(N5CCC6(CC5)CCN(C5CC(c7ccc(C8CCC(=O)NC8=O)cc7)C5)C6)ccc4c23)ccc1[C@@H](C)NC(=O)c1nc(C(C)(C)C)no1` (stereo in doubt) [Example 101, 3-(tert-butyl)-N—((R)-1-(4-(7-(2-(3-(4-((R)-2,6-dioxopiperidin-3-yl)phenyl)cyclobutyl)-2,8-diazaspiro[4.5]decan-8-yl)-9H-pyrimido[4,5-b]indol-4-yl)-2-methylphenyl)ethyl)-1,2,4-oxadiazole-5-carboxamide] showed a DC50 at BTK of 1.52 nM. Also, the IC50 in the assay on HEK-293 cells (Homo sapiens) was 956 nM.

`Cc1cc(-c2ncnc3[nH]c4cc(N5CCN([C@H]6C[C@H](c7ccc(N[C@@H]8CCC(=O)NC8=O)cc7)C6)CC5)ccc4c23)ccc1[C@@H](C)NC(=O)c1nc(C2(C)CC2)no1` [Example 117, N—((R)-1-(4-(7-(4-((1R,3r)-3-(4-(((R)-2,6-dioxopiperidin-3-yl)amino)phenyl)cyclobutyl)piperazin-1-yl)-9H-pyrimido[4,5-b]indol-4-yl)-2-methylphenyl)ethyl)-3-(1-methylcyclopropyl)-1,2,4-oxadiazole-5-carboxamide] showed a DC50 at BTK of 0.981 nM. The IC50 in the assay on HEK-293 cells (Homo sapiens) is more than 10000 nM.

At BTK, “5-(tert-butyl)-N—((R)-1-(4-(7-(4-(3-(4-((R)-2,6-dioxopiperidin-3-yl)phenyl)cyclobutyl)piperazin-1-yl)-9H-pyrimido[4,5-b]indol-4-yl)-3-fluoro-2-methylphenyl)ethyl)-1,2,4-oxadiazole-3-carboxamide [Example 32]” displayed a DC50 of 9.03 nM. Besides, the IC50 in the assay with HEK-293 cells is more than 10000 nM.
